Laboratory results from patent publication US7494996B2 (priority 2000, dated 2009).

Experiments:
Two-Spotted Spider Mite = experiment: Protocol 1 Two-Spotted Spider Mite (MTA) foliar spray test; format: in vivo, Tetranychus urticae; conditions: Protocol 1, DOSE 150; percentage of mites killed 1-day post-treatment
Description: A test solution containing 1250 parts per million (ppm) was prepared by dissolving the test compound in […] of a second solvent (acetone: water, 1:1) to give an acetone:water: methanol system of 50: 40:10.
The enclosed spraying chamber consisted of a single spray nozzle mounted on a boom moving at a fixed speed and distance over stationary targets. The vertical distance from the nozzle tip to the targets was adjusted to give rates varying from 150 g/ha to 600 g/ha
A pad of moistened cotton was placed in a Petri dish. A 1-inch square section cut from a fully expanded primary lima bean (Phaseolus limensis) leaf was positioned bottom side up on the moist cotton. The leaf square was infested with approximately 50 adult female mites. The dishes were sprayed with the test solutions and held at 27° C. for mortality determination 1-day post-treatment. The percentage of mites killed were rated from 100% (all dead) to 0% (all alive).

Pyricularia oryzae = experiment: whole plant or invertebrate; format: in vivo; conditions: protectant, 300 g/ha, greenhouse; 100 is total disease control, 0 is no disease control
Sphaerotheca fuliginea = experiment: Cucumber Powdery Mildew (CPM) protectant test in the greenhouse; format: in vivo; conditions: 300 g/ha, 100 is total disease control, 0 is no disease control
Procedure, shortened: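 Compounds in acetone-methanol-water (1:1:2) sprayed onto cucumber cv. "Bush Champion" (cotyledons plus one true leaf, 13 days old), dried 4 h. Inoculated 1 day later with 2×10^5 spores/ml; disease control (%) rated after 7 days in greenhouse.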

Compound	MTA (Two-Spotted Spider Mite) [%]	Rice Blast (RB) protectant fungicide data, percent control (Pyricularia oryzae) [percent control]	Cucumber Powdery Mildew (CPM) protectant fungicide data, percent control (Sphaerotheca fuliginea) [percent control]
CCCCN1N=C(c2cccc(Cl)c2)NCC1=O [Compound 110]	100	99	90
C=CCOC(=O)N1CC(=O)N(CCCC)N=C1c1cc(Cl)cc(Cl)c1 [Compound 135]	43	90	50
O=c1cnc(-c2ccc(Cl)cc2)nn1Cc1ccc(Cl)s1 [Compound 266]	0	90	50
O=C1CN(Cc2ccc(Cl)s2)C(c2ccc(Cl)cc2)=NN1Cc1ccc(Cl)s1 [Compound 63]	0	–	–
CCN1N=C(c2ccc(Cl)c(Cl)c2)NCC1=O [Compound 100]	25	99	80
C=COC(=O)N1CC(=O)N(CCCC)N=C1c1cc(Cl)cc(Cl)c1 [Compound 127]	95	95	50
CCCCn1nc(-c2cc(Cl)cc(Cl)c2)ncc1=O [Compound 271]	93	99	50
O=C1CNC(c2ccc(Cl)c(Cl)c2)=NN1Cc1ccccc1 [Compound 103]	23	90	0
O=C1CNC(c2cc3ccccc3s2)=NN1CC(F)(F)F [Compound 163]	100	90	0
COC(=O)C(=O)N1CC(=O)N(CC(F)(F)F)N=C1c1cc(Cl)cc(Cl)c1 [Compound 123]	0	95	50
CCCCCCCCCCn1nc(-c2ccc(Cl)cc2)ncc1=O [Compound 260]	0	75	0
CCCCN1N=C(c2ccc(F)c(F)c2)NCC1=O [Compound 69]	68	95	80
CCCCCCn1nc(-c2ccc(Cl)cc2)ncc1=O [Compound 262]	0	85	80
O=C1CNC(c2cc(Cl)cc(Cl)c2)=NN1CC1CC1 [Compound 109]	90	100	95
CCCCN1N=C(c2ccc(Cl)c(Cl)c2)NCC1=O [Compound 101]	0	100	80
O=C1CNC(c2cc(Cl)ccc2Cl)=NN1CC(F)(F)F [Compound 70]	71	80	80

Compound	MTA (Two-Spotted Spider Mite) [%]	Rice Blast (RB) protectant fungicide data, percent control (Pyricularia oryzae) [percent control]	Cucumber Powdery Mildew (CPM) protectant fungicide data, percent control (Sphaerotheca fuliginea) [percent control]
Cc1cccc(N2N=C(c3cccc(Cl)c3)NCC2=O)c1 [Compound 112]	0	85	80
C#CCOC(=O)N1CC(=O)N(CCCC)N=C1c1cc(Cl)cc(Cl)c1 [Compound 133]	0	80	0
C[Si](C)(C)Cn1nc(-c2ccc(Cl)cc2)ncc1=O [Compound 265]	0	85	90
CCCCCCN1N=C(c2ccc(Cl)cc2)NCC1=O [Compound 55]	–	90	50
C#CCN1CC(=O)N(CC#C)N=C1c1ccc(Cl)c(Cl)c1 [Compound 216]	–	98	80
CCCCn1nc(-c2ccc(Cl)c(Cl)c2)ncc1=O [Compound 270]	0	100	95
CCCCCCCCCCN1N=C(c2ccc(Cl)cc2)NCC1=O [Compound 57]	–	50	0
C=CCSC(=O)N1CC(=O)N(CCCC)N=C1c1ccc(Cl)c(Cl)c1 [Compound 191]	–	95	50
Cc1ccc(C2=NN(CC(F)(F)F)C(=O)CN2)cc1Cl [Compound 293]	–	100	50
C#CCN1CC(=O)N(CC#C)N=C1c1ccc(F)c(Br)c1 [Compound 217]	–	85	0
CCOC(=O)CN1N=C(c2ccc(F)c(F)c2)NCC1=O [Compound 125]	–	50	50
CCCCN1N=C(C)NC(c2ccccc2C)C1=O (centres unmarked) [Compound 76]	–	0	25
O=C1CNC(c2cccc(Br)c2)=NN1CC(F)(F)F [Compound 212]	–	98	85
COC(=O)N1CC(=O)N(CC(F)(F)F)N=C1c1cc(Cl)cc(Cl)c1 [Compound 71]	–	75	50
O=C1CNC(c2cc(Cl)nc(Cl)c2)=NN1Cc1ccccc1 [Compound 190]	–	80	0
CCCCCCCCn1nc(-c2ccc(Cl)cc2)ncc1=O [Compound 259]	0	90	75
